Literature values in patent publication US20250332127A1, “SYSTEM AND METHOD FOR DELIVERING THERAPEUTIC AGENTS TO THE UTERINE CAVITY” (priority 2021, published 2025).
Where two headings read alike, the source gives them in different places.

viscosity (at 20 degrees of Celsius)	SMILES	viscosity (trichloroacetic acid as used as therapeutic agent)
0.0147 centipoise	O=C=O [CO2]	
	O=C(O)C(Cl)(Cl)Cl [trichloroacetic acid]	≥ 1 centipoise
